Reference: patent US10004711B2, “Methods and compositions comprising 10-hydroxy-2-decenoic acid” (DSM IP ASSETS B.V., priority 2014, dated 2018)

How the values were obtained:
[1] = test system: Neurons from the brain's hippocampus; test: Glutamate toxicity, mitochondrial health (TMRE); type: cell-based, rat; details: for Mitochondrial Health (% Control): glutamate 25 μM 24 h
Protocol: Neurons from the brain's hippocampus were derived from E17 pups and incubated for 7 days. The cells were pre-treated with QBA for 48 hours and subsequently challenged with glutamate (25 μM) for 24 hours. The cultures were then stained with propidium iodide, a marker of cell death, and with tetramethylrhodamine ethyl ester (TMRE), a marker for mitochondrial health. The fluorescence of each of these markers was then quantitated with a fluorimeter.

[2] = test system: Neurons from the brain's hippocampus; test: In vitro hypoxia cell health (calcein AM); type: cell-based, rat; details: for Cell Viability (% Control): hypoxia (<0.3% O2) 48 h
Protocol: Neurons from the brain's hippocampus were derived from E17 pups and incubated for 7 days. The neurons were then pre-treated with QBA for 48 hours and subsequently exposed to a hypoxia (<0.3% O2) for 48 hours. The cultures were stained with calcein AM, a marker of live cells, and with ethidium homodimer, a marker for dead cells. The fluorescence of each of these markers was then quantitated with a fluorimeter.

older rats = test: Open field test, older rats fed QBA; type: in vivo, rat; details: for Center Entries (#): rats 15 months old, thirty minutes
Protocol: The dose-response characteristics of 10-Hydroxy-2-decenoic acid's (QBA's) potential brain health benefits during aging were assessed for mood in older rats (18-20 months old).
In the open field test each rat was placed in a novel environment consisting of an arena measuring 100×100×40 cm. Rats were placed in the middle of the chamber and behavior in the open field was recorded for thirty minutes with a digital camera and measured by software. More time spent in the center of the area is an indication of a reduced anxiety-like state. Rats were tested at 15 months old (N=11-12 per group).

[3] = Weight management in mice, colitis-related disease state (cell transfer insult); type: in vivo, mouse; details: for % Original Wt: Diseased + QBA 60 mg/kg body weight/day
Protocol: Mice (45 days of age) were fed 60 mg/kg body weight/day QBA (equivalent to 24 mg/kg/d in rats; HED of ˜240 mg/day, N=10) or a control diet (N=15) for 28 days. […] After 28 days, all 10 of the mice fed QBA and 10 of the 15 control mice were subjected to a cell transfer insult wherein the mice were considered to be in a colitis-related disease state. The undiseased controls (N=5) and the diseased controls (N=10) continued on their control diets, and the diseased QBA-fed animals continued on their QBA diets (60 mg/kg body weight/day QBA), for an additional 49 days.

[4] = Townsend et al. 1960; Izuta et al. 2009; cited from earlier work
[5] = QBA 10.00 μM pre-treatment 48 h
[6] = QBA 30.00 μM pre-treatment 48 h
[7] = QBA 100.00 μM pre-treatment 48 h

Structure (SMILES): O=C(O)C=CCCCCCCCO [QBA, 10-Hydroxy-2-decenoic acid]
- Mitochondrial Health (% Control) ([1]; QBA 0.10 μM pre-treatment 48 h): 101.94 % Control
- Mitochondrial Health (% Control) ([1]; QBA 0.30 μM pre-treatment 48 h): 112.27 % Control
- Mitochondrial Health (% Control) ([1]; QBA 1.00 μM pre-treatment 48 h): 110.50 % Control
- Mitochondrial Health (% Control) ([1]; QBA 3.00 μM pre-treatment 48 h): 106.39 % Control
- Mitochondrial Health (% Control) [1, 5]: 111.02 % Control
- Mitochondrial Health (% Control) [1, 6]: 114.72 % Control
- Mitochondrial Health (% Control) [1, 7]: 123.80 % Control
- cell health after glutamate toxicity ([1]; summary of Table 3): increased cell health
- Cell Viability (% Control) ([2]; QBA 0.10 μM pre-treatment 48 h): 109.72 % Control
- Cell Viability (% Control) ([2]; QBA 0.30 μM pre-treatment 48 h): 112.76 % Control
- Cell Viability (% Control) ([2]; QBA 1.00 μM pre-treatment 48 h): 118.80 % Control
- Cell Viability (% Control) ([2]; QBA 3.00 μM pre-treatment 48 h): 121.04 % Control
- Cell Viability (% Control) [2, 5]: 117.65 % Control
- Cell Viability (% Control) [2, 6]: 115.05 % Control
- Cell Viability (% Control) [2, 7]: 111.82 % Control
- cell health after low oxygen exposure ([2]; summary of Table 5): increased cell health
- Center Entries (#) (older rats; QBA 0.4 mg/kg/day): 1.82 #
- Center Entries (#) (older rats; QBA 4 mg/kg/day): 2.50 #
- Center Entries (#) (older rats; QBA 12 mg/kg/day): 1.82 #
- anxiety as measured by the number of center entries in the open field arena (older rats; QBA 24 mg/kg/d, 15-18-month old male rats): decreased anxiety
- Center Entries (#) (older rats; QBA 24 mg/kg/day): 3.75 #
- % Original Wt ([3]; day 0): 0.00%
- % Original Wt ([3]; day 3): 1.93%
- % Original Wt ([3]; day 7): 5.33%
- % Original Wt ([3]; day 10): 9.91%
- % Original Wt ([3]; day 14): 9.09%
- % Original Wt ([3]; day 17): 9.10%
- % Original Wt ([3]; day 21): 12.60%
- % Original Wt ([3]; day 24): 15.47%
- % Original Wt ([3]; day 28* (cell transfer insult after 28 days)): 16.19%
- % Original Wt ([3]; day 31): 18.82%
- % Original Wt ([3]; day 35): 20.65%
- % Original Wt ([3]; day 38): 19.66%
- % Original Wt ([3]; day 42): 21.27%
- % Original Wt ([3]; day 45): 22.86%
- % Original Wt ([3]; day 49): 24.04%
- % Original Wt ([3]; day 52): 24.05%
- % Original Wt ([3]; day 56): 22.29%
- % Original Wt ([3]; day 59): 21.83%
- % Original Wt ([3]; day 63): 23.89%
- % Original Wt ([3]; day 66): 22.42%
- % Original Wt ([3]; day 70): 22.95%
- % Original Wt ([3]; day 73): 21.96%
- % Original Wt ([3]; day 77): 20.56%
- weight of mice in a diseased state versus undiseased controls ([3]; QBA 60 mg/kg body weight/day, colitis-related disease state): maintained their weight similar to the undiseased control mice
- percentage increase in body weight versus control diet ([3]; QBA 60 mg/kg body weight/day, first 28 days, before insult): greater percentage increase in body weight
- in vitro antitumor activity [4]: antitumor activity
